In patent US11925617B2 (priority 2005, dated 2024):

Key:
[1] = tested on: HL60 neo cells; assay: cells; format: cell-based; conditions: Homo sapiens, HL-60, 240 h, read-out: inhibition of cell growth
[2] = tested on: HL60 neo cells; format: cell-based
[3] = tested on: HL60 bcl-2 cells; format: cell-based
[4] = tested on: HL60 bcl-2 cells; assay: cells; format: cell-based
[5] = tested on: bcl-2 protein; format: cell-based
[6] = tested on: SCC VII cells; format: cell-based, murine
[7] = tested on: HT29 cells; format: cell-based, Human

With `O=C(CBr)N1CC([N+](=O)[O-])([N+](=O)[O-])C1` [ABDNAZ] the inhibition at 5 µM [1] was > 95%, the apoptosis [2] was 95% and the “apoptotic cell death, peak” value [2] was ~40%. For the same compound, the apoptosis [3] was 78%, the “apoptotic cell death, peak” value [3] was ~40% and the “sensitivity of HL60 bcl-2 cells compared with neo cells” value [4] was “as sensitive as neo cells”. The inhibition at 5 µM ([4]; Homo sapiens, HL-60, 240 h, read-out: inhibition of cell growth) was > 95%, the bcl-2 protein expression [5] was “inhibited bcl-2 protein expression in both neo and bcl-2 cells in a dose-dependent manner” and the “intracellular ROS generation, combined treatment of ABDNAZ and radiation” value [6] was “synergistically induced intracellular ROS generation”. For the same compound, the “levels of ROS compared with HT29 cells” value [6] was “significantly higher than that induced in HT29 cells”, the “production of ROS” value [6] was “dose, time and cell line dependent” and the “time of peak ROS production” value [6] was 2 h. For the same compound, the “intracellular ROS generation, combined treatment of ABDNAZ and radiation” value [7] was “synergistically induced intracellular ROS generation”, the “production of ROS” value [7] was “dose, time and cell line dependent” and the “time of peak ROS production” value [7] was 24 h.
